Values after ≈ are worked out from the molar mass of the structure shown. Read-outs that look alike come from different tables or passages of the source.
Key:
S. aureus (strain 906) = assay: Time-kill test, initial studies (death time); assay type: cell-based, Staphylococcus aureus
Description: (§1) Time-kill tests were used to measure the disinfecting property of test compounds, e.g., microbiocidal or sporicidal compositions, using select bacterial challenge microorganisms such as the vegetative forms of, e.g., E. coli (strain 1257) S. aureus (strain 906), and Bacillus cereus (strain 96).

E. coli (strain 1257) = assay: Time-kill test, initial studies (death time); assay type: cell-based, Escherichia coli
Description: as §1

[1] = test system: Bacillus cereus (strain 96); assay: Time-kill test, initial studies (death time, sporicidal activity); assay type: cell-based; settings: Conc. 5.0 %
[2] = component at 100%; cited from earlier work
T. rubrum ATCC 28188 [3] = assay: NCCLS broth microdilution MIC and MFC (Example 10); assay type: cell-based, Trichophyton rubrum; settings: for MFC, %: 99.9% inhibition of growth
Description: (§4) Strains of E. coli (ATCC 11229), D. aeruginosa (ATCC 15442), S. aureus (ATCC 25923), S. epidermidis (ATCC 12228), S. pyogenes (ATCC 19615), C. albicans (ATCC 10231), and T. rubrum (ATCC 28188) were used as “challenge microorganisms” in this study. Strains were removed from frozen stock and subcultured twice on blood agar to ensure that the strains had optimal growth and metabolic status before testing.
(§5) Amphotericin B, fluconazole, and Hibiclens were added as comparative agents in the fungal panels.
(§6) For testing purposes, AMC, AMC components, and Hibiclens were diluted to 50% of the working solution to cover the proposed AMC use dilution of 20%.
(§7) Microtiter panels were created on the day of MIC testing. A 50 μl aliquot of Mueller-Hinton broth (for bacterial strains) or RPMI 1640 (for fungal strains) was delivered to each well, except those in column one of the microtiter panel. The working solution of AMC and each of its components, and comparative agents were delivered to the designated wells in column one. AMC, components, and comparators were serially diluted across the panel. A 50 μl aliquot of bacterial or fungal suspension was then added to each well on the microtiter panel, using a new pipette tip for each aliquot. Panels were incubated at 35° C. for 16-20 h for the E. coli, P. aeruginosa, and S. aureus strains, 20-24 h for the S. pyogenes strain, and 48 h for the C. albicans strain. T. rubrum panels were incubated for 3 to 4 days before MICs were read. […] Fungal MICs (%) were read using an 80% reduction in the growth endpoint relative to the turbidity of the growth control for AMC, its components, and fluconazole. For amphotericin B, the endpoint was read as the complete inhibition of growth.
(§8) MFCs were determined in a similar manner.
(§9) The endpoint for amphotericin B was read as complete inhibition of growth. The MIC % is expressed as g/100 ml or ml/100 ml. […] The MFC % is expressed as g/100 ml or ml/100 ml.

C. albicans ATCC 10231 [4] = assay: NCCLS broth microdilution MIC and MFC (Example 11); assay type: cell-based, Candida albicans
Description: (§10) Strains of C. albicans (ATCC 10231) and T. rubrum (ATCC 28188) were tested in this study. Strains were removed from frozen stock and subcultured twice on blood agar to ensure that the strains had optimal growth and metabolic status before testing. Strains were tested by NCCLS broth microdilution (M27-A2, 2002) and challenged with AMC solution and its individual components […] ), and isopropanol. Amphotericin B, fluconazole, terbinafine, and Hibiclens were added as comparator compounds. […] Microtiter panels were created on the day of MIC testing. A 50 μl aliquot of RPMI 1640 was delivered to each well except those in column one of the microtiter panel. The working solution of AMC and each of its components, and comparative agents were delivered to the designated wells in column one; AMC, components, and comparators were serially diluted across the panel. A 50 μl aliquot of fungal suspension was then added to each well on the microtiter panel, using a new pipette tip for each aliquot. […] For amphotericin B, the endpoint was read as the complete inhibition of growth. […] MFCs were performed to determine the concentration at which ≧99% of the starting fungal inoculum was killed. […] After incubation, colony counts for each panel well plated were recorded. […] The endpoint for amphotericin B was read as complete inhibition of growth.

[5] = test system: Trichophyton rubrum (ATCC 28188); assay: Time-Kill test (Example 9); assay type: cell-based; settings: for 30-Second Log Reduction from Initial T. rubrum CFU Values: Table 25, first value column
Description: A panel of “challenge microorganisms,” including select bacteria, yeast, and fungi was used to assess the disinfecting properties of test compounds, e.g., AMC (DPT Laboratories). […] The procedure was based on the ASTM procedure entitled, “Standard Test Method for the Assessment of Microbial Activity of Test Materials Using Time-Kill Procedure.”
A single lot of test material was prepared at various concentrations, along with multiple compounds prepared in various concentrations and combinations. These test materials were tested in duplicate against various bacteria, yeast and fungi. To minimize potential buffer interference and to minimize reduction of antimicrobial activity, the volume of the inoculum added to the test material was maintained at, or below, 1% of the total volume of the test. Samples were removed at various contact times. Serial dilutions were performed, and duplicate aliquots were plated. The plates were then incubated, and the average colony forming units (CFU) recovered per milliliter were determined for each contact time. The contact times for the test compounds with S. aureus, E. coli, P. aeruginosa, and C. albicans were 30 sec, 1 min, and 5 min. The contact times for the test compounds with B. subtilis were 1 and 10 min, 1 h, 2 h, 3 h, and 24 h. The contact times for the test compounds with T. rubrum were 30 sec, 1 min and 10 min. The contact temperature was ambient room temperature (20-21° C.).
The fungus, T. rubrum, was inoculated onto Emmon's agar (EA) and incubated at 25-30° C. for 10-15 days. The mycelial mats from mature cultures were removed from the surface of at least 5 plates and macerated with sterile saline (SS) in a sterile glass tissue grinder. The suspension was filtered through sterile glass wool to remove the hyphae.
The density of the conidial suspension was determined by serially diluting the prepared culture in BPDW. Aliquots from selected dilutions were plated on duplicate EA plates. The plates were incubated for 3-5 days at 25-30° C. and then each plate was examined for enumeration.
The suspension was stored at 2-10° C. for 4 weeks before use. On the day of testing, the suspension was adjusted to yield approximately 5.0×10^8 CFU by dilution with BPDW.
Compliant with the ASTM procedure cited above, the challenge microorganism was added to the test material by dispensing 99 ml of the test material into two sterile flasks, each containing a stir bar. The reaction flasks were allowed to equilibrate to the test temperature for at least 10 minutes. The flasks were placed in water baths on stir plates and maintained at the test temperature with stirring. A 1 ml aliquot of the prepared inoculum of the challenge microorganism was added to each flask to begin the contact period. At each contact time, 1 ml aliquot samples were removed and added to tubes containing 9 ml PBDW+. Serial 10-fold dilutions of each sample were then prepared in PBDW dilution blanks. Duplicate aliquots from selected dilutions were plated using the appropriate agar.
Upon completion of all contact periods, all plates were inverted and incubated for the appropriate time and temperature as follows: bacteria and yeast were incubated over 2 nights at 37° C.±2° C., and the fungus was incubated for at least 5 nights at 25-30° C. Following incubation, all plates were removed, the colonies were counted and the CFU recovered per ml at each contact time were calculated.

Acute oral toxicity, rat = settings: for LD50: rat, in vivo, po
[6] = component at 100%; cited from earlier work; remark: listed apart in the source
E. coli ATCC 11229 = assay: NCCLS broth microdilution MIC and MBC (Example 10); assay type: cell-based, Escherichia coli
Description: as §4
(§11) Hibiclens (industry comparator) and ciprofloxacin were added to the bacterial panel. Amphotericin B, fluconazole, and Hibiclens were added as comparative agents in the fungal panels.
as §6
(§12) Microtiter panels were created on the day of MIC testing. A 50 μl aliquot of Mueller-Hinton broth (for bacterial strains) or RPMI 1640 (for fungal strains) was delivered to each well, except those in column one of the microtiter panel. The working solution of AMC and each of its components, and comparative agents were delivered to the designated wells in column one. AMC, components, and comparators were serially diluted across the panel. A 50 μl aliquot of bacterial or fungal suspension was then added to each well on the microtiter panel, using a new pipette tip for each aliquot. Panels were incubated at 35° C. for 16-20 h for the E. coli, P. aeruginosa, and S. aureus strains, 20-24 h for the S. pyogenes strain, and 48 h for the C. albicans strain.
(§13) The 10 μl samples were plated on to blood agar and incubated at 35° C. for 24 h (E. coli and P. aeruginosa) or 48 h (S. aureus, S. epidermidis, and S. pyogenes). After incubation, colony counts for each panel well plated were recorded.
(§14) The MIC % is expressed as g/100 ml or ml/100 ml. […] The MBC % is expressed as g/100 ml or ml/100 ml.

[7] = Acute inhalation toxicity, rat; settings: for LC50: rat, in vivo, inhaled
C. albicans ATCC 10231 [8] = assay: NCCLS broth microdilution MIC and MFC (Example 10); assay type: cell-based, Candida albicans
Description: as §4, §5, §6, §7, §8, §9

S. pyogenes ATCC 19615 = assay: NCCLS broth microdilution MIC and MBC (Example 10); assay type: cell-based, Streptococcus pyogenes
Description: as §4, §11, §6, §12, §13, §14

T. rubrum ATCC 28188 [9] = assay: NCCLS broth microdilution MIC and MFC (Example 11); assay type: cell-based, Trichophyton rubrum
Description: as §10

P. aeruginosa ATCC 15442 = assay: NCCLS broth microdilution MIC and MBC (Example 10); assay type: cell-based, Pseudomonas aeruginosa
Description: as §4, §11, §6, §12, §13, §14

[10] = Acute dermal toxicity, rabbit; settings: for LD50: rabbit, in vivo, topical or ocular
Hepatitis B virus = settings: virus in dried human plasma exposed 10 min at 20 deg C. to 70% isopropanol; 9 months observation; cited from earlier work
S. aureus ATCC 25923 = assay: NCCLS broth microdilution MIC and MBC (Example 10); assay type: cell-based, Staphylococcus aureus; settings: for bactericidal activity: MBC within one doubling dilution of the MIC
Description: as §4, §11, §6, §12, §13, §14

[11] = test system: S. epidermidis ATCC 12228; assay: NCCLS broth microdilution MIC and MBC (Example 10); assay type: cell-based, Staphylococcus epidermidis; settings: for bactericidal activity: MBC within one doubling dilution of the MIC
Description: as §4, §11, §6, §12, §13, §14

[12] = component at 100%; cited from earlier work; remark: listed apart in the source
dermatophyte infections = dermatophyte infections in animals; cited from earlier work
T. rubrum = assay: MIC and MBC determination by doubling dilutions (Study 509-102); assay type: cell-based, Trichophyton rubrum; settings: Trichophyton rubrum; Study 509-102; Inoculum Counts: 3.6 × 10^8
Description: (§2) Table 2 below indicates the stock dilutions for each test agent, and a breakdown of the resulting concentrations for each of the doubling dilutions performed is summarized in Table 3.
(§3) From the stock dilutions, an initial 1:10 dilution was made (representing tube 1), followed by doubling dilutions (tubes 2-12), as detailed in Table 3.

S. pyogenes = assay: as above; assay type: cell-based; settings: Streptococcus pyogenes, Inoculum Counts: 9.8 × 10^5
Description: as §2, §3

Pseudomonas aeruginosa = assay: as above; assay type: cell-based; settings: Inoculum Counts: 8.8 × 10^5
Description: as §2, §3

S. epidermidis = assay: as above; assay type: cell-based; settings: Staphylococcus epidermidis, Inoculum Counts: 9.0 × 10^5
Description: as §2, §3

Escherichia coli = assay: as above; assay type: cell-based; settings: Inoculum Counts: 9.4 × 10^5
Description: as §2, §3

Staphylococcus aureus = assay: as above; assay type: cell-based; settings: Inoculum Counts: 7.5 × 10^6
Description: as §2, §3

C. albicans = assay: as above; assay type: cell-based; settings: Candida albicans, Inoculum Counts: 6.6 × 10^5
Description: as §2, §3

[13] = in vivo; cited from earlier work
[14] = test system: Staphylococcus aureus (ATCC 25923); assay: Time-Kill test (Example 9); assay type: cell-based; settings: Study 509-101; at 30 seconds
Description: A panel of “challenge microorganisms,” including select bacteria, yeast, and fungi was used to assess the disinfecting properties of test compounds, e.g., AMC (DPT Laboratories). Specifically, the disinfectant property of test compounds were tested against Staphylococcus aureus (ATCC 25923); Staphylococcus epidermidis (ATCC 12228); Bacillus subtilis (ATCC 19659); Escherichia coli (ATCC 11229); and Pseudomonas aeruginosa (ATCC 15442) bacteria, as well as the yeast Candida albicans (ATCC 10231), and the fungus Trichophyton rubrum (ATCC 28188). The test procedure incorporated the recommendations described in the “Manual of Clinical Microbiology,” 5th ed., edited by A. B. Balows et al., ASM, Washington, as directed by the Federal Register, June 1994. […]
A single lot of test material was prepared at various concentrations, along with multiple compounds prepared in various concentrations and combinations. […] The plates were then incubated, and the average colony forming units (CFU) recovered per milliliter were determined for each contact time. […]
Bacteria and C. albicans from stock cultures were transferred into trypticase soya broth (TSB) and incubated for 18-24 hours at 37° C.±2° C. […] The microbe concentration was measured using a spectrophotometric technique well-known in the art. […]

[15] = component at 100%; cited from earlier work; remark: listed apart in the source
[16] = 80% reduction in growth endpoint
[17] = MFC within 1 doubling dilution of the MIC
[18] = Example 10, % as g/100 ml or ml/100 ml
[19] = Estimated for AMC contained concentrations

Monoglycinatecopper chloride complex
Death time of test-microorganisms (min) S. aureus (S. aureus (strain 906); Conc. 0.1 %): >30 min
Death time of test-microorganisms (min) S. aureus (S. aureus (strain 906); Conc. 0.2 %): >30 min
Death time of test-microorganisms (min) S. aureus (S. aureus (strain 906); Conc. 0.5 %): >30 min
Death time of test-microorganisms (min) S. aureus (S. aureus (strain 906); Conc. 5.0 %): >30 min
Death time of test-microorganisms (min) E. coli (E. coli (strain 1257); Conc. 0.1 %): >30 min
Death time of test-microorganisms (min) E. coli (E. coli (strain 1257); Conc. 0.2 %): 30 min
Death time of test-microorganisms (min) E. coli (E. coli (strain 1257); Conc. 0.5 %): 15 min
Death time of test-microorganisms (min) B. cereus [1]: >360 min

CC(C)O [Isopropanol]
Rat Inhalation LC50 [2]: 72.6 µg/mL
MIC, % (T. rubrum ATCC 28188 [3]; Example 10, 80% reduction in growth endpoint): 0.2%
MFC, % (T. rubrum ATCC 28188 [3]; Example 10): 0.4%
fungicidal activity (T. rubrum ATCC 28188 [3]; Example 10, MFC within 1 doubling dilution of the MIC): Fungicidal activity was observed
MFC, % (C. albicans ATCC 10231 [4]): 1.5%
MIC, % (C. albicans ATCC 10231 [4]; [16]): 0.8%
fungicidal activity (C. albicans ATCC 10231 [4]; [17]): Fungicidal activity
Relative Kill Potency [5]: 0.64
reduction of T. rubrum count ([5]; Study 509-101, in 30 sec): not effective
30-Second Log Reduction from Initial T. rubrum CFU Values [5]: 0.8 Logs
LD50 (Acute oral toxicity, rat): > 5000 mg/kg
Rabbit Dermal LD50 [6]: 12,800 mg/Kg
MIC, % (E. coli ATCC 11229; % as g/100 ml or ml/100 ml): 6.1%
LC50 [7]: 145 µg/mL (≈ 2410 µM)
MIC, % (C. albicans ATCC 10231 [8]; [16]): 1.5%
MFC, % (C. albicans ATCC 10231 [8]; 99.9% inhibition of growth): 1.5%
fungicidal activity (C. albicans ATCC 10231 [8]; [17]): Fungal activity
MBC, % (S. pyogenes ATCC 19615; [18]): 12.3%
MIC, % (S. pyogenes ATCC 19615; [18]): 12.3%
MFC, % (T. rubrum ATCC 28188 [9]; Example 11): 3.1%
MIC, % (T. rubrum ATCC 28188 [9]; Example 11, 80% reduction in growth endpoint): 0.2%
fungicidal activity (T. rubrum ATCC 28188 [9]; Example 11, MFC within 1 doubling dilution of the MIC): did not demonstrate fungicidal activity
MBC, % (P. aeruginosa ATCC 15442; [18]): 12.3%
MIC, % (P. aeruginosa ATCC 15442; [18]): 3.1%
LD50 [10]: 25600 mg/kg
infection after intravenous inoculation of treated viral material (Hepatitis B virus): did not show signs of infection
MBC, % (S. aureus ATCC 25923; [18]): 24.6%
MIC, % (S. aureus ATCC 25923; [18]): 12.3%
bactericidal activity (S. aureus ATCC 25923; Example 10): bactericidal activity
MCB, % ([11]; % as g/100 ml or ml/100 ml): 24.5%
MIC, % ([11]; % as g/100 ml or ml/100 ml): 12.3%
bactericidal activity [11]: bactericidal activity
Rat Oral LD50 [12]: >5,000 mg/Kg

CC(C)N1CCN(c2ccc(N3CCN(c4ccc(OC[C@H]5OC[C@](Cn6cncn6)(c6ccc(F)cc6F)O5)cc4)CC3)cc2)C1=O [Azoline]
activity relative to itraconazole (dermatophyte infections): 5 times

O=C(O)c1cn(C2CC2)c2cc(N3CCNCC3)c(F)cc2c1=O [Ciprofloxacin]
MBC (T. rubrum): > 0.1 µg/mL
MIC (T. rubrum): > 0.1 µg/mL
MBC (S. pyogenes): > 0.1 µg/mL
MIC (S. pyogenes): > 0.1 µg/mL
MBC (Pseudomonas aeruginosa): > 0.1 µg/mL
MIC (Pseudomonas aeruginosa): > 0.1 µg/mL
MBC (S. epidermidis): > 0.1 µg/mL
MIC (S. epidermidis): > 0.1 µg/mL
MBC (Escherichia coli): > 0.1 µg/mL
MIC (Escherichia coli): > 0.1 µg/mL
MBC (Staphylococcus aureus): > 0.1 µg/mL
MIC (Staphylococcus aureus): > 0.1 µg/mL
MBC (C. albicans): > 0.1 µg/mL
MIC (C. albicans): > 0.1 µg/mL
MIC (E. coli ATCC 11229; Escherichia coli, ATCC11229): ≤ 0.03 µg/mL
MIC (S. pyogenes ATCC 19615; Streptococcus pyogenes, ATCC19615, Example 10): 0.5 µg/mL (≈ 1.51 µM)
MBC (S. pyogenes ATCC 19615; Streptococcus pyogenes, ATCC19615, Example 10, read-out: MBC): 0.5 µg/mL (≈ 1.51 µM)
MIC (P. aeruginosa ATCC 15442; Pseudomonas aeruginosa, ATCC15442, Example 10): 0.12 µg/mL (≈ 0.362 µM)
MBC (P. aeruginosa ATCC 15442; Pseudomonas aeruginosa, ATCC15442, Example 10, read-out: MBC): 0.5 µg/mL (≈ 1.51 µM)
bactericidal activity (S. aureus ATCC 25923; Example 10): bactericidal activity
MIC (S. aureus ATCC 25923; Staphylococcus aureus, ATCC25923, Example 10): 0.5 µg/mL (≈ 1.51 µM)
MBC (S. aureus ATCC 25923; Staphylococcus aureus, ATCC25923, Example 10, read-out: MBC): 0.5 µg/mL (≈ 1.51 µM)
MCB [11]: 0.25 µg/mL
bactericidal activity [11]: bactericidal activity
MIC ([11]; Staphylococcus epidermidis, ATCC12228): 0.25 µg/mL (≈ 0.754 µM)

C=C1/C(=C/C=C2\CCC[C@]3(C)[C@@H]([C@@H](C)CCC(=O)N4CCCCC4)CC[C@@H]23)C[C@@H](O)C[C@@H]1O [Ecalcidene]
dose with immunological effects, times lower than doses causing toxicity associated with hypercalcemia [13]: 10-100 times

CCCCCCCCCCCCCCCC[n+]1ccccc1 [CPC, Cetyl Pyridinium Chloride]
Rat Inhalation LC50 [2]: 0.090 µg/mL
MFC, % (T. rubrum ATCC 28188 [3]; Example 10): ≤ 0.0007%
MFC (T. rubrum ATCC 28188 [3]; Trichophyton rubrum, ATCC28188): ≤ 7 µg/mL
30-Second Log Reduction from Initial T. rubrum CFU Values [5]: 3.4 Logs
reduction of S. aureus count [14]: 2 log10
LD50 (Acute oral toxicity, rat): 20000 mg/kg
Rabbit Dermal LD50 [6]: >2,000 mg/Kg
LC50 [7]: 9 µg/mL
MBC, % (S. pyogenes ATCC 19615; [18]): <=0.0007%
MBC (S. pyogenes ATCC 19615; Streptococcus pyogenes, ATCC19615): ≤ 7 µg/mL
MFC, % (T. rubrum ATCC 28188 [9]; Example 11): ≤ 0.0007%
MFC (T. rubrum ATCC 28188 [9]; Trichophyton rubrum, ATCC28188): ≤ 7 µg/mL
MBC, % (P. aeruginosa ATCC 15442; [18]): 0.04%
MBC (P. aeruginosa ATCC 15442; Pseudomonas aeruginosa, ATCC15442): 400 µg/mL
LD50 [10]: > 20000 mg/kg
MBC, % (S. aureus ATCC 25923; [18]): <=0.0007%
MBC (S. aureus ATCC 25923; Staphylococcus aureus, ATCC25923): ≤ 7 µg/mL
MCB (μg/ml) [11]: (<=7) μg/ml
MCB, % ([11]; % as g/100 ml or ml/100 ml): <=0.0007%

[O-2].[Zn+2] [Zn oxide (100%), Zn oxide]
Rat Inhalation LC50 [2]: >0.005 µg/mL
Rat Oral LD50 (*Mouse data) [15]: 7,950 mg/Kg
Rat Oral LD50 (Acute oral toxicity, rat; [19]): >>100,000 mg/Kg
Rabbit Dermal LD50 [6]: >2,000 mg/Kg
Rat Inhalation LC50 [7, 19]: >4.2 µg/mL
Rabbit Dermal LD50 [10, 19]: >>100,000 mg/Kg

— US20080057136A1, “Disinfecting Composition and Methods of Making and Using Same” (priority 2003, published 2008)
